The results in this text go back to ChEMBL document CHEMBL5465560, “Selectivity Literature for EUbOPEN Chemogenomic Library” (2024).

The subject of assay [1] is Fibroblast growth factor receptor 3 (Homo sapiens), P22607 [G697C]. Description: (§1) Selectivity interaction (LanthaScreen Eu Kinase Binding Assay) EUB0001632a FGFR3. To be noted: at 10 µM.
The test system of assay [2] is Fibroblast growth factor receptor 3 (Homo sapiens), P22607 [K650M]. Described as §1. To be noted: at 10 µM.
The subject of assay [3] is Receptor-type tyrosine-protein kinase FLT3 (Homo sapiens), P36888 [UNDEFINED MUTATION]. As to the kind of experiment: Selectivity interaction (LanthaScreen Eu Kinase Binding Assay) EUB0001632a FLT3. To be noted: at 10 µM.
The target in assay [4] is T1, Hormonally up-regulated neu tumor-associated kinase (Homo sapiens) (UniProt P57058).
T1 sequence (whole entry): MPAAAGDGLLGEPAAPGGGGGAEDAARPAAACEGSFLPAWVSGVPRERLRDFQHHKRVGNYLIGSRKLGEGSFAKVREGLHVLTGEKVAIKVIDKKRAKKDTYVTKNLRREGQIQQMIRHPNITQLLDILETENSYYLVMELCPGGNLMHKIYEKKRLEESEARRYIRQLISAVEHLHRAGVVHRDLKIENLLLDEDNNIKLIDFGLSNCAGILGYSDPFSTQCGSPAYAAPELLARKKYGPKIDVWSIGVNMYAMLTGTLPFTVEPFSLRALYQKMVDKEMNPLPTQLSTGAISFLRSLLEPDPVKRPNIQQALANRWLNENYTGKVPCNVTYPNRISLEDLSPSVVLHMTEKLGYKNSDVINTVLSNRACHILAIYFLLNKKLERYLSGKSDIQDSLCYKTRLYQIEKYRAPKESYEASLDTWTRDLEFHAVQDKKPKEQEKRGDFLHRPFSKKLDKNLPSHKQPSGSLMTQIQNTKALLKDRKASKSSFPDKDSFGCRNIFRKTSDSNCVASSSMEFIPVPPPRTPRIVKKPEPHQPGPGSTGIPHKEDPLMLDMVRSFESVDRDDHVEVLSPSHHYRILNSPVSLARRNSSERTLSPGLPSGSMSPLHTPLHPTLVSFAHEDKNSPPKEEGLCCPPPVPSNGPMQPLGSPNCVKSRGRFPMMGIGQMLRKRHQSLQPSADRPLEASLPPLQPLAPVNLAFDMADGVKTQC
As to the kind of experiment: Selectivity interaction (LanthaScreen Eu Kinase Binding Assay) EUB0001632a HUNK. The note with it: at 10 µM.

Assay [5] concerns the target Homeodomain-interacting protein kinase 1 (Homo sapiens, UniProt Q86Z02). Description: Selectivity interaction (Ambit KINOMEscan and KiNATiv profiling in Jurkat cells) EUB0000090b HIPK1. To be noted: at 1 µM. The class given is cell-based.
The target of assay [6] is Fibroblast growth factor receptor 4 (Homo sapiens, UniProt P22455). Description: Selectivity interaction (SelectScreen profiling (Invitrogen)) EUB0000607a FGFR4. To be noted: at 2 µM.
Assay [7] deals with Ribosomal protein S6 kinase alpha-2 (Homo sapiens) (UniProt Q15349). As to the kind of experiment: Selectivity interaction (KinomeScan (DiscoverX)) EUB0000607a RPS6KA2. To be noted: at 10 µM.
Chain of Ribosomal protein S6 kinase alpha-2 (Homo sapiens) (Q15349 whole entry): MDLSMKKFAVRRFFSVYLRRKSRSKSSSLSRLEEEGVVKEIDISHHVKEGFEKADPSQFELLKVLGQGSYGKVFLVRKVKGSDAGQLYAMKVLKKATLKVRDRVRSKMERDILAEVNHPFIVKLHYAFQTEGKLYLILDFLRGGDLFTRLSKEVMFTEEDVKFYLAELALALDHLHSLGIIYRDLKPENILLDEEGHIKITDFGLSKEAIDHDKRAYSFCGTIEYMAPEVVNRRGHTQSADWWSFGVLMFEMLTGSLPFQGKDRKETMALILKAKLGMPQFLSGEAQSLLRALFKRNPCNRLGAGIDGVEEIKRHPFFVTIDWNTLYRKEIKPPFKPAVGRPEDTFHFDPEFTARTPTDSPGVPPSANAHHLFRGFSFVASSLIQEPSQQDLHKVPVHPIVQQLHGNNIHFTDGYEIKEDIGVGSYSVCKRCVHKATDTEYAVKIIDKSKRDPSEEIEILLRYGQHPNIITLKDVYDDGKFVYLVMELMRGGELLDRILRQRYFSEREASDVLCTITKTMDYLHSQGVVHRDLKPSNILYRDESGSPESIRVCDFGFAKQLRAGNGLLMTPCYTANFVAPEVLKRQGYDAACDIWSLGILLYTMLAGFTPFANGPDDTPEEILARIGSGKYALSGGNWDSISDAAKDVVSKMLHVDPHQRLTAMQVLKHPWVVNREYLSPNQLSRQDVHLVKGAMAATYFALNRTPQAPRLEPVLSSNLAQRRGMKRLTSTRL
For assay [8], the target named is Receptor-type tyrosine-protein kinase FLT3 (Homo sapiens) (UniProt P36888). Description: Selectivity interaction (KinomeScan (DiscoverX)) EUB0000666a FLT3. The note with it: at 10 µM.
Chain of Receptor-type tyrosine-protein kinase FLT3 (Homo sapiens) (P36888 whole entry): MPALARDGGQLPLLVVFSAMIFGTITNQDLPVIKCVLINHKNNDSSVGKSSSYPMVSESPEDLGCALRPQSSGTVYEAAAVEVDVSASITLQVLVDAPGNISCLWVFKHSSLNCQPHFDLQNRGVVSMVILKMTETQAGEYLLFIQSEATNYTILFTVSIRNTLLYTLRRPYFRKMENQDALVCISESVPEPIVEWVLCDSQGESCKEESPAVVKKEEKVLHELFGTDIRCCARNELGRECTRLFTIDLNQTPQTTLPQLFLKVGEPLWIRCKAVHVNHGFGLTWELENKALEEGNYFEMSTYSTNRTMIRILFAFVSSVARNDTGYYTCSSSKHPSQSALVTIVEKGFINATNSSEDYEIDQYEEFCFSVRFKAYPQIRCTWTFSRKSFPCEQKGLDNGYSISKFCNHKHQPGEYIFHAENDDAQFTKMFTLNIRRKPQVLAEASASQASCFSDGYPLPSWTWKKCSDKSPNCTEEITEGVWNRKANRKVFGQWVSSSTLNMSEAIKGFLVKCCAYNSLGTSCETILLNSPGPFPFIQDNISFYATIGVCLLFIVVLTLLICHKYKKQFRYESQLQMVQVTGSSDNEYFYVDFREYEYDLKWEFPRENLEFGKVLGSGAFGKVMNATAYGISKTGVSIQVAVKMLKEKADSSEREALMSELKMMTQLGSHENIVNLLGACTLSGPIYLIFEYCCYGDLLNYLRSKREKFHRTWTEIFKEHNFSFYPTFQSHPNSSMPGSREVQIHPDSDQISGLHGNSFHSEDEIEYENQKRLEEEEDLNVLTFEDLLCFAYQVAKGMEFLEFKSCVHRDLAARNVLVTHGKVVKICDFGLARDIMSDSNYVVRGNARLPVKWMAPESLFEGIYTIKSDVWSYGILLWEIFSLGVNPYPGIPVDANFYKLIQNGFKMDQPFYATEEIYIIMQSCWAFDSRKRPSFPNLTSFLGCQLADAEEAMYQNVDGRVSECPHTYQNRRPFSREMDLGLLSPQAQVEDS
Assay [9] addresses T2, Serine/threonine-protein kinase DCLK2 (Homo sapiens) (UniProt Q8N568).
T2 sequence (whole entry): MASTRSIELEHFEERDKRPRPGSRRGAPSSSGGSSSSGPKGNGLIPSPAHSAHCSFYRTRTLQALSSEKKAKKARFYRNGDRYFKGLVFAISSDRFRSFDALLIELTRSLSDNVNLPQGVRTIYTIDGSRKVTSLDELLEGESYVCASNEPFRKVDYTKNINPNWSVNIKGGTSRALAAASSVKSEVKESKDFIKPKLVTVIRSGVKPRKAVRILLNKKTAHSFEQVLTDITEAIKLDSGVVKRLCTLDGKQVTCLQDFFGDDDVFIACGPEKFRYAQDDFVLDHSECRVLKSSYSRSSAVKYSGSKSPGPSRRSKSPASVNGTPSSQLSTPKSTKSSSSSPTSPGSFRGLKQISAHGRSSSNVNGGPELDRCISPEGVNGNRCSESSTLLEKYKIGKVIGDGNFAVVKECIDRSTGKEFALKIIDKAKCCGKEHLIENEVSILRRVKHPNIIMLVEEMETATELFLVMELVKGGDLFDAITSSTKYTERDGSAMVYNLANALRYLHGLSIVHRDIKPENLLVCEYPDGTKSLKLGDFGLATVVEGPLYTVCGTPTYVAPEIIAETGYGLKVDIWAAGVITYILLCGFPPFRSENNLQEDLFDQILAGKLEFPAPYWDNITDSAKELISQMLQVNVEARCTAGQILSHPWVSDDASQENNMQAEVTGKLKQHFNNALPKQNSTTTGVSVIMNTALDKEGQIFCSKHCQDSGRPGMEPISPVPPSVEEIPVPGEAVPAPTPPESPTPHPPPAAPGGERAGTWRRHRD
As to the kind of experiment: Selectivity interaction (KinomeScan (DiscoverX)) EUB0001079a DCLK2. To be noted: at 1 µM.

For assay [10], the target named is D(1A) dopamine receptor (Homo sapiens, UniProt P21728). As to the kind of experiment: Selectivity interaction (GPCR panel (PDSP screen)) EUB0001079a DRD1. To be noted: at 10 µM.
The target of assay [11] is Phosphatidylinositol 3-kinase catalytic subunit type 3 (Homo sapiens, UniProt Q8NEB9). As to the kind of experiment: Selectivity interaction (KinomeScan (DiscoverX)) EUB0001079a PIK3C3. To be noted: at 1 µM.
The target in assay [12] is Ribosomal protein S6 kinase alpha-2 (Homo sapiens) (UniProt Q15349). Description: Selectivity interaction (KinomeScan (DiscoverX)) EUB0001079a RPS6KA2. To be noted: at 1 µM.
Assay [13] deals with Transient receptor potential cation channel subfamily M member 6 (Homo sapiens) (UniProt Q9BX84). As to the kind of experiment: Selectivity interaction (KinomeScan (DiscoverX)) EUB0001079a TRPM6. To be noted: at 1 µM.
Chain of Transient receptor potential cation channel subfamily M member 6 (Homo sapiens) (Q9BX84 whole entry): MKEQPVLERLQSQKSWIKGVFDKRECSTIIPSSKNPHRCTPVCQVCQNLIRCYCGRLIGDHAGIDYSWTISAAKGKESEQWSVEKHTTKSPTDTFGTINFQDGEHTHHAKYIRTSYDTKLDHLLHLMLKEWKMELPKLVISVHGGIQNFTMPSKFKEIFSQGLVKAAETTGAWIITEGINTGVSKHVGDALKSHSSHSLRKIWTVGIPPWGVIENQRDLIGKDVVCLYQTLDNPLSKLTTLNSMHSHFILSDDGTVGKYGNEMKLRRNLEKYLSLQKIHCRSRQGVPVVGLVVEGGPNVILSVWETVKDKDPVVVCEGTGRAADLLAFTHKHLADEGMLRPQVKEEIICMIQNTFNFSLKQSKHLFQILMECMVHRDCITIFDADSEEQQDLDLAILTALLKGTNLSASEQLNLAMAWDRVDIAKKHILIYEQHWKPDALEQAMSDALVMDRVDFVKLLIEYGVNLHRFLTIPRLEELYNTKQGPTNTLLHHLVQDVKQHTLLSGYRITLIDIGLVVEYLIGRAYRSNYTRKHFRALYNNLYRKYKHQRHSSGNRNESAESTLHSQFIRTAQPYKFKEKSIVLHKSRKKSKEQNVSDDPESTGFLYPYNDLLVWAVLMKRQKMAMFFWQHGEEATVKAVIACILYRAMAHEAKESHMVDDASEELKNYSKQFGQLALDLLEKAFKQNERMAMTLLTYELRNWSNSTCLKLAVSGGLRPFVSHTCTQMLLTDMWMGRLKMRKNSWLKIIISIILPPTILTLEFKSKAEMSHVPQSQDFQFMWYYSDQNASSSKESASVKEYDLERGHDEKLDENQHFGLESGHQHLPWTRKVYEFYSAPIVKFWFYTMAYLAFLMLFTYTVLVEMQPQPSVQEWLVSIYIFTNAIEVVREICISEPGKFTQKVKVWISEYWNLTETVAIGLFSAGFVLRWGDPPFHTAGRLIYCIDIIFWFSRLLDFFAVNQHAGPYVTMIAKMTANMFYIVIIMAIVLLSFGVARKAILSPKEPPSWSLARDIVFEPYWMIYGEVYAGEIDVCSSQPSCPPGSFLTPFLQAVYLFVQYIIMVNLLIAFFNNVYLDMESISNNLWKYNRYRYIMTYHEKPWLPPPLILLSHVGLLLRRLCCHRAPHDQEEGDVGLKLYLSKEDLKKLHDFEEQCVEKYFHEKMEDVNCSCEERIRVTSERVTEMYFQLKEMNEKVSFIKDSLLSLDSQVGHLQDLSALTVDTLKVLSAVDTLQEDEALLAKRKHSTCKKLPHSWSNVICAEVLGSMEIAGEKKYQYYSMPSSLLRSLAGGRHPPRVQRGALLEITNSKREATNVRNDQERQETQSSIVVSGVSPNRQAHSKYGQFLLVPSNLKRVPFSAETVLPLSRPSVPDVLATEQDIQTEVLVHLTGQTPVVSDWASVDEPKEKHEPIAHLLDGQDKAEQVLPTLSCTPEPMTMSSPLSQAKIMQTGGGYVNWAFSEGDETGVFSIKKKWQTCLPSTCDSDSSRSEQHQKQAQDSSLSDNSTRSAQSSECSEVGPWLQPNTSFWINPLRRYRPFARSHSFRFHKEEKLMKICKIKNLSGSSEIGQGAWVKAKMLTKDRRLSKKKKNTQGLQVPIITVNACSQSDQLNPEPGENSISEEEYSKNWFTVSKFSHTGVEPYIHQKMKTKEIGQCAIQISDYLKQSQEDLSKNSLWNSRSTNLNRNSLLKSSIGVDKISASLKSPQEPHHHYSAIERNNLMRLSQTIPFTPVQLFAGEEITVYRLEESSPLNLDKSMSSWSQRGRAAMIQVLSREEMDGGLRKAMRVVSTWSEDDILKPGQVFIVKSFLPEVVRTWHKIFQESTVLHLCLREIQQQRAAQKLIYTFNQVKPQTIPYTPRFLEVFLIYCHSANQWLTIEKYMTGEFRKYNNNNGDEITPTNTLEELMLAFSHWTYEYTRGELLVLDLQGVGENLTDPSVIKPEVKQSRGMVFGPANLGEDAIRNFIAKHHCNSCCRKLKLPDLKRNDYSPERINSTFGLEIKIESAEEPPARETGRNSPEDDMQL
The target in assay [14] is High affinity nerve growth factor receptor (Homo sapiens, UniProt P04629). As to the kind of experiment: Selectivity interaction (KinomeScan (DiscoverX)) EUB0001619a NTRK1. To be noted: at 1 µM.
Assay [15] deals with RAF proto-oncogene serine/threonine-protein kinase (Homo sapiens) (UniProt P04049). Description: Selectivity interaction (Millipore kinase profiler) EUB0000124b RAF1. To be noted: at 10 µM.
Assay [16] concerns the target Tyrosine-protein kinase ABL2 (Homo sapiens, UniProt P42684). As to the kind of experiment: Selectivity interaction (KinomeScan (DiscoverX)) EUB0001049a ABL2. To be noted: at 1 µM.
Assay [17] concerns the target Insulin-like growth factor 1 receptor (Homo sapiens, UniProt P08069). Description: Selectivity interaction (KinomeScan (DiscoverX)) EUB0000695a IGF1R. To be noted: at 100 nM.
Assay [18] deals with Dual specificity protein kinase CLK1 (Homo sapiens, UniProt P49759). Description: Selectivity interaction (KinomeScan (DiscoverX)) EUB0000045b CLK1.
Chain of Dual specificity protein kinase CLK1 (P49759 whole entry, looked up): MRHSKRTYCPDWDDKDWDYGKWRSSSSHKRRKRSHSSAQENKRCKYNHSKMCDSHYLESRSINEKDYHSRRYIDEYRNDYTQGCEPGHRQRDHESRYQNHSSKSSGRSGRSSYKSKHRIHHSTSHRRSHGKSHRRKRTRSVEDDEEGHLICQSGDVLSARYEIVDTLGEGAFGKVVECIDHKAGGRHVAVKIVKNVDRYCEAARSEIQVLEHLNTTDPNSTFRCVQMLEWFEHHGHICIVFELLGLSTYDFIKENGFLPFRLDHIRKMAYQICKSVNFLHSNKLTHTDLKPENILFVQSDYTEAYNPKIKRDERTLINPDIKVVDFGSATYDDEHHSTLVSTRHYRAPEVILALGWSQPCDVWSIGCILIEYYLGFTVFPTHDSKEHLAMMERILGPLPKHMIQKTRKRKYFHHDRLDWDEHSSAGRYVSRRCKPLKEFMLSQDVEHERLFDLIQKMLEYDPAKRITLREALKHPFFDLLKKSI
Assay [19] addresses Serine/threonine-protein kinase MARK1 (Homo sapiens) (UniProt Q9P0L2). Description: Selectivity interaction (KinomeScan (DiscoverX)) EUB0000045b MARK1.
Assay [20] has as its target Mitogen-activated protein kinase 11 (Homo sapiens) (UniProt Q15759). As to the kind of experiment: Selectivity interaction (KinomeScan (DiscoverX)) EUB0000618a MAPK11. To be noted: at 10 µM.
Assay [21] concerns the target Ribosomal protein S6 kinase alpha-5 (Homo sapiens) (UniProt O75582). The note with it: at 10 µM.

Chain of Serine/threonine-protein kinase MARK1 (Homo sapiens) (Q9P0L2 whole entry, looked up): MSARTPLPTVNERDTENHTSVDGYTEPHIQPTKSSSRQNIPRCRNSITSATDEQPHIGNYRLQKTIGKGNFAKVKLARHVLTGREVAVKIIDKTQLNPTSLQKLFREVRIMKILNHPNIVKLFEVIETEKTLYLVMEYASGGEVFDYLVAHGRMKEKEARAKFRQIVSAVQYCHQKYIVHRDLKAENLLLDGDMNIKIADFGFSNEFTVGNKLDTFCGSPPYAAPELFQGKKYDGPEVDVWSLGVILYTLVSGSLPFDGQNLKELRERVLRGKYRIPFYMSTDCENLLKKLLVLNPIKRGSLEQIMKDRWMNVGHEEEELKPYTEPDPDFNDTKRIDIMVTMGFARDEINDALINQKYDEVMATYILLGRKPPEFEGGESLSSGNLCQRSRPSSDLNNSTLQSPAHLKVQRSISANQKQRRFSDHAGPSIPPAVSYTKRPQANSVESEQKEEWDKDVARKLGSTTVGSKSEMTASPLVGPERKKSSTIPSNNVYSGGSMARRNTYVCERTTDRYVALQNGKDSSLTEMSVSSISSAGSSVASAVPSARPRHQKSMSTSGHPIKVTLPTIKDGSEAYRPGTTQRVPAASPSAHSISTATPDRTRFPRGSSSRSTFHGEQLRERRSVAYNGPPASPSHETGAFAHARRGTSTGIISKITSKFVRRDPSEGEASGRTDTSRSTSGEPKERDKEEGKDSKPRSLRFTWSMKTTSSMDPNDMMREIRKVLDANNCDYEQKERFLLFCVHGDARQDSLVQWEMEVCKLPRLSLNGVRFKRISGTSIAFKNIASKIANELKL
Chain of Receptor-type tyrosine-protein kinase FLT3 (Homo sapiens), P36888 [UNDEFINED MUTATION] (P36888 whole entry, looked up, change not shown): as the sequence (P36888 whole entry) above

For `Cn1cc(-n2cnc3c(NCc4nc5cc(Cl)c(Cl)cc5[nH]4)nc(N4CCOCC4)nc32)cn1`, the % of inhibition in [1] is -105%; in assay [2] it was -215%; in assay [3] it was -1.89%; in assay [4] it was -12%.
Consider `CN(C)C/C=C/C(=O)Nc1ccc(C(=O)N2CCCC(Nc3ncc(Cl)c(-c4c[nH]c5ccccc45)n3)C2)cc1` (stereo not drawn), for which the % of control in assay [5] amounted to 80%.
As for `CNC(=O)Nc1ccc(-c2nc(N3CC4CCC(C3)O4)c3cnn(C4CCC5(CC4)OCCO5)c3n2)cc1`, the % of inhibition in [6] was found to be 4%. This molecule also gave a % of control in [7] of 100%.
For `O=C(NOC[C@H](O)CO)c1ccc(F)c(F)c1Nc1ccc(I)cc1F`, the % of control in [8] was determined as 80%.
As to `Nc1cnc(N2CCc3cc(S(=O)(=O)Nc4c(F)cc(Cl)cc4F)cc(N4CCCC4=O)c32)nc1` [TP-020n], the % of control in assay [9] is 100%; in [11] it was 100%; in assay [12], 88%; in [13], 93%. In assay [10], the % of inhibition is -8.35%.
The molecule `N#Cc1cccc(-c2c[nH]c3ncnc(N4CCOCC4)c23)c1` returned a % of control in assay [14] of 88%.
In turn, `CC(=O)Nc1cccc(-n2c(=O)n(C3CC3)c(=O)c3c(Nc4ccc(I)cc4F)n(C)c(=O)c(C)c32)c1` had a % of control in assay [15] of 108%.
Turning to `COc1cc(Nc2nc(C)cc(-c3cnn4nc(OC)ccc34)n2)cc(C(F)(F)F)c1`, in assay [16], the % of control was 76%.
Consider `Cc1cc(F)c(C(=O)Nc2cccc(-c3nncn3C(C)C)n2)cc1-n1cnc(C2CC2)c1`, for which the % of control in [17] stood at 100%.
Turning to `C=CC(=O)Nc1cc(-n2c(=O)ccc3cnc4ccc(-c5ccc(NS(C)(=O)=O)cc5)cc4c32)ccc1C`, the % of control in assay [18] (at 1 µM) turned out to be 95%; in assay [18] (at 10 µM), 86%; in assay [19] (at 1 µM), 97%; in assay [19] (at 10 µM), 89%.
For the molecule `O[C@H]1CC[C@H](Nc2ncc3nc(Nc4c(F)cc(F)cc4F)n([C@H]4CCOC4)c3n2)CC1`, the % of control in [20] worked out at 24%.
As for `COCC(=O)NC/C=C/c1ccc2ncnc(Nc3ccc(Oc4ccc(C)nc4)c(C)c3)c2c1` [CP-724714], in [21], the % of control is 99%.
